Results taken from patent US8524744B2, “Arylamine ketones, their preparation methods, the pharmaceutical composition containing them and their use” (Institute of Mataria Medica, Chinese Academy of Medical …, priority 2004, dated 2013).
Structures can show the parent of a compound that is named as a salt.

Tests used:
[1] = system: patients with rheumatoid arthritis; settings: after administration for 4 weeks; cited from earlier work
NF-κB, TNF-α mRNA = settings: infected mice; cited from earlier work
[2] = system: mouse with arthritis induced by type III collagen; settings: cited from earlier work
rat paw swelling = settings: induced by PAF, carrageenan, histamine, 5-serotonin; cited from earlier work
[3] = system: mouse ear edema induced by croton oil; assay: mouse ear edema induced by croton oil; assay type: in vivo; settings: orally, 50 mg·kg^−1, Kunming mice
Protocol: Kuming mice (male, 18-22 g) were randomly divided into two groups (treatment and control) with 10 animals for each group. The animals were orally administrated with compounds or solvent, respectively. 1 hr later, 50 μl of 2% croton oil was smeared on the two sides of mouse left ear. After 4 hr the mice were sacrificed by cervical vertebra displacement. The two ears were cut off and the central sections were excised using a punch with a diameter of 8 mm and weighed. Edema was quantified as the weight difference between the two sections.

[4] = system: cutaneous vascular permeability in mice induced by PAF; assay: increase of cutaneous vascular permeability in mice induced by PAF; assay type: in vivo, mouse; settings: orally, 50 mg·kg^−1, Kunming mice
Protocol: Kunming mice (male, 18-22 g) were randomly divided into two groups (treatment and control) with 10 animals for each group. The animals were orally administrated with the compounds or solvent, respectively. 1 hr later, 0.25 ml of 1% evans blue dye was injected into the tail vein. After 10 min, 0.1 ml of PAF (1×10^−8 mol·L^−1) was intracutaneously injected into the dorsal skin shaved. 1 hr later, the animals were sacrificed by cervical vertebra displacement. The skin with blue spot was cut off. The evans blue dye was extracted by 0.8 ml of mixed solution of acetone and normal saline (7:3). The supernatant was transferred into the 96-well plate. The optical density was measured at 620 nm.

[5] = system: polymorphonuclear leucocytes from rat pleural cavity; assay: release of β-glucuronidase by polymorphonuclear leucocytes from rat pleural cavity in vitro (PAF as irritant); assay type: cell-based; settings: for IC50: rat polymorphonuclear leucocytes
Protocol: 1% carrageenan was injected into the right pleural cavity of Wistar rat to induce polymorphonuclear leucocytes. The cells was suspended in Dulbecoo's buffer at the concentration of 2.5×10^6 cells·ml^1. The fluid containing the compound or solvent and 250 μl of cells suspension were added in test tube and incubated in 37° C. waterbath for 15 min. Then 2.5 μl of cytochalasin B (1×10^−3 mol·L^−1) was added and the reaction was continued for 5 min. Then 2.5 μl of PAF (1×10^−4 mol·L^−1) was added and for another 5 min. The test tubes were put into ice bath to stop the reaction. The supernatant was isolated and used as the β-glucuronidase release fluid. 25 μl of the enzyme fluid, 25 μl of phenolphthalein-glucuronic acid (2.5 mmol·L^−1) and 100 μl of acetic acid buffer (0.1 mol·L^−1) were added into each well of 96-well plate which was placed into incubater and kept at 37° C.3 for 18 hr. 150 μl of NaOH (0.3 mol·L^−1) was added in each well to cease the reaction and the optical density was read at 550 nm.

[6] = system: mouse paw swelling induced by carrageenan; assay: mouse paw swelling induced by carrageenan; assay type: in vivo; settings: orally, 50 mg·kg^−1, Kunming mice
Protocol: Kunming mice (male, 18-22 g) were randomly divided into two groups (treatment and control) with 10 animals for each group. The animals were orally administrated with compounds or solvent, respectively. 1 hr later, 50 μl of 1% carrageenan was intracutaneously injected into the sole of right posterior foot. After 4 hr the animals were sacrificed by displacing cervical vertebra. The two paws were cut off at ankle joint and weighed. The swelling was evaluated by the difference of the weights of two paws.

rat neutrophils = assay: chemotaxis of rat neutrophils in vitro; assay type: cell-based; settings: Neutrophil, 4 hr, read-out: IC50, inhibition of chemotaxis
Protocol: The blood was collected from rat common carotid artery and anticoagulated. The neutrophils was isolated by 5% glucose solution and lymphocyte separating medium. 27 μl of irritant was added into the well at low part of the chemotaxis plate. The filter membrane was covered on the wells and the top part of the plate was assembled on the filter. 50 μl of cells suspension with various concentrations of compound or solvent was added into the well at top part of the plate. The plate was incubated at 37° C. for 4 hr. The filter was taken out, stained by hematoxylin and dehydrated. The cells migrated into the other side of the filter was counted by microscope.

[7] = system: macrophages from mouse peritoneal cavity; assay: chemotaxis of macrophages from mouse peritoneal cavity induced by PAF; assay type: cell-based; settings: Macrophage, 2 hr, read-out: IC50, inhibition of chemotaxis
Protocol: 4% of sodium mercaptoethanol was injected into C57BL/6 mouse peritoneal cavity to induce macrophages. The cells in peritoneal cavity were collected after injection for 3-4 days. 27 μl of irritant was added into the well at low part of the chemotaxis plate. The filter membrane was covered on the wells and the top part of the plate was assembled on the filter. 55 μl of cells suspension with various concentrations of the compounds or solvent was added into the well at top part of the plate. The plate was placed into incubater with 5% CO2 at 37° C. for 2 hr. The filter was taken out, stained by hematoxylin and dehydrated. The cells migrated into the other side of the filter was counted by microscope.

[8] = target: T1, PAF receptors of macrophages from mouse peritoneal cavity (Mus musculus, UniProt Q62035); assay: competitive binding of [3H]-PAF to its receptors of macrophages from mouse peritoneal cavity; settings: 4° C, 150 min, read-out: Ki, competition with [3H]-PAF binding
T1 construct: The cells in peritoneal cavity were collected after injection for 3-4 days; endogenous in cells; host or cells: adherent peritoneal macrophages of C57BL/6 mice (primary)
Protocol: 4% of sodium mercaptoethanol was injected into C57BL/6 mouse peritoneal cavity to induce macrophages. The cells in peritoneal cavity were collected after injection for 3-4 days. 500 μl of suspension (5×10^5cells·ml^−1) was inoculated into 24-well culture plate which was placed into the incubator with 5% CO2 at 37° C for 2.5 hr. The non-adherent cells and serum in media were discarded. 490 μl of Tyrode-Hepes solution and 5 μl of [^3H]-PAF (final concentration: 2.8 nmol·L^−1) were added into each well. 5 μl of unlabeled PAF (5 μmol·L^1) was added into the well for the nonspecific binding. The series concentrations of compound were added into the well for the competitive binding and the corresponding volume of solvent was added into the wells for the total binding or the nonspecific binding. The reaction fluid was incubated at 4° C for 150 min and rinsed to wipe off the free labeled ligand. 300 μl of NaOH (0.3 mol·L^−1) was added to lyse the cells. The lysate fluid was transferred into a vial in which 7 ml of scintillation solution was added. The radioactivity strength was measured by scintillation counter.

[9] = system: production of TNF-α by macrophages from mouse peritoneal cavity; assay: production of TNF-α by macrophages from mouse peritoneal cavity (LPS, L929 bioassay); assay type: cell-based; settings: Macrophage, 24 h, read-out: IC50, inhibition of the production of TNF-α
Protocol: The macrophages from mouse peritoneal cavity were prepared as described before. 500 μl of cells were inoculated in 48-well plate which was incubated with 5% CO2 at 37° C. for 2.5 hr. The compounds and LPS (final concentration: 10 μg·ml^−1) were added into each well of the plate. After incubating for 24 hr the supernatant was collected. The content of TNF-α was determined by following method. 100 μl of L929 cells (2×10^5cells·ml^−1) with 100 μl of RPMI-1640 or supernatant collected above were inoculated into 96-well plate which incubated under 5% CO2 at 37° C. for 20 hr. The supernatant was discarded. 200 μl of 0.5% crystal violet was added into each well. 10 min later crystal violet outside of the cells was rinsed using normal saline. The cells were dried under room temperature. 100 μl of 10% SDS was added into each well. After the cells were lysed completely the optical density was measured at 570 nm. The well of 1640 media was as the control, The content of TNF-a was evaluated by the percentage of L929 cells survival.

[10] = system: production of NO in macrophages from mouse peritoneal cavity; assay: production of NO in macrophages from mouse peritoneal cavity (LPS and PAF); assay type: cell-based; settings: Macrophage, 24 h, read-out: IC50, inhibition of the production of NO
Protocol: 4% of sodium mercaptoethanol was injected into C57BL/6 mouse peritoneal cavity to induce macrophages. The cells in peritoneal cavity were collected after injection for 3-4 days. 500 μl of cells were inoculated in the well of 24 wells plate which was placed in the CO2 incubator at 37° C. for 2.5 hr to make the cells adherent. The cells were rinsed by 1640 culture media. 495 μl of 1640 media containing irritant and 5 μl the compound or solvent were added into each well. The plate was incubated for 24 hr. The supernatant was taken out and mixed with the same volume of Griess agent. The reaction fluid was kept at room temperature for 10 min and the optical density was measured at 550 nm. The numbers read was transferred into the content of NO.

rat ear edema = settings: induced by PAF or PMA; cited from earlier work
[11] = system: TNF-α level in synovial fluid of rat ankle joint; settings: induced by immune complex; cited from earlier work
[12] = system: new vessels in mouse angiogenesis model; settings: mouse angiogenesis model induced by synovial fluid of patient with rheumatoid arthritis; cited from earlier work
[13] = Dose 1 × 10^−5 mol · L^−1, Irritant 2 × 10^−7 mol · L^−1

T1 sequence (Q62035 whole entry): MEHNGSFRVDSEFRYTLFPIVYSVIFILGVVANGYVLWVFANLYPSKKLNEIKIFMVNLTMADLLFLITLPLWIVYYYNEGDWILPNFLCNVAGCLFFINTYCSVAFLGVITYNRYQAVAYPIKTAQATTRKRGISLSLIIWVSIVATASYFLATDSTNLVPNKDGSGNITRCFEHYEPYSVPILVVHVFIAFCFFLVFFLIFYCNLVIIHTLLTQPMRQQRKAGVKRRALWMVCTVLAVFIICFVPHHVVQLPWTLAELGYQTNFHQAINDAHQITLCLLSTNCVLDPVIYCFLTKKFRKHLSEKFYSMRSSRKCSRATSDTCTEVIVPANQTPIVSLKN

## O=C(C=Cc1ccc(C(F)(F)F)cc1)CCN1CCC(Cc2ccccc2)CC1 (as salt: hydrochloride) [Compound 20, 5-[(4-Benzyl)piperidyl]-1-(4-trifluoromethylphenyl)-1-penten-3-one hydrochloride]
other
  melting point: 175 to 179 °C

## COc1ccc(C=CC(=O)CCN2CCC(Cc3ccccc3)CC2)cc1 (as salt: hydrochloride) [Compound 22a, 5-[(4-Benzyl)piperidyl]-1-(4-methoxyphenyl)-1-penten-3-one hydrochloride]
other
  melting point: 180 to 184 °C

## COc1ccc(C=CC(=O)CCN2CC(C)OC(C)C2)cc1O (centres unmarked) (as salt: hydrochloride) [Compound 36, 5-(2,6-Dimethylmorpholinyl)-1-(3-hydroxy-4-methoxyphenyl)-1-penten-3-one hydrochloride]
other
  melting point: 194 to 196 °C

## CCOc1cc(C=CC(=O)CCN2CC(C)OC(C)C2)ccc1O (centres unmarked) (as salt: hydrochloride) [Compound 37, 5-(2,6-Dimethylmorpholinyl)-1-(3-ethoxy-4-hydroxyphenyl)-1-penten-3-one hydrochloride]
other
  melting point: 198 to 201 °C

## COc1ccc(NC(=S)N2CCc3c(sc4c3C(c3ccccc3Cl)=NCc3nnc(C)n3-4)C2)cc1 [BN50730]
[1]
  symptom of patients with rheumatoid arthritis: significantly improves
NF-κB, TNF-α mRNA
  early activity of NF-κB: reduce
  expression of TNF-α mRNA: reduce
[2]
  consumption of proteoglycan in cartilage: decrease
  joint swelling: significantly inhibit
  precipitation of fibronectin in cartilage: decrease

## CCCCCCCCCCCCCCCCCCNC(=O)OCC(COC(=O)N(Cc1cccc[n+]1CC)C(C)=O)OC (centres unmarked) [CV-6209]
Rat paw swelling
  rat paw swelling: inhibit

## CCOC(=O)C1CCCN(CCC(=O)C=Cc2ccc(Cl)cc2Cl)C1.Cl (centres unmarked) [Compound 16, 5-[(3-Ethoxycarbonyl)piperidyl]-1-(2,4-dichlorophenyl)-1-penten-3-one hydrochloride]
[3]
  Inhibition (%) of mouse ear edema: 29.05%
[4]
  Inhibition (%) of increase of cutaneous vascular permeability: 48.09%
[5]; Dose 2 × 10^−6 mol · L^−1, Irritant 1 × 10^−7 mol · L^−1
  Inhibition (%) of β-glucuronidase release: 84.38%
[5]
  IC50: 22.4 nM

## COc1ccc(C=CC(=O)CCN2CCC(Cc3ccccc3)CC2)cc1 [Compound 22a, 5-[(4-Benzyl)piperidyl]-1-(4-methoxyphenyl)-1-penten-3-one hydrochloride]
[6]
  Inhibition (%) of mouse paw swelling: 23.33%
[3]
  Inhibition (%) of mouse ear edema: 31.22%
[4]
  Inhibition (%) of increase of cutaneous vascular permeability: 51.14%
[5]; Dose 1 × 10^−5 mol · L^−1, Irritant 1 × 10^−6 mol · L^−1
  Inhibition (%) of β-glucuronidase release: 73.17%
[5]; Leucocyte
  IC50: 562 nM
Rat neutrophils
  IC50: 4.05 nM

## COc1ccc(C=CC(=O)CCN2CC(C)OC(C)C2)cc1O (centres unmarked) [Compound 36, 5-(2,6-Dimethylmorpholinyl)-1-(3-hydroxy-4-methoxyphenyl)-1-penten-3-one hydrochloride]
[6]
  Inhibition (%) of mouse paw swelling: 28.00%
[4]
  Inhibition (%) of increase of cutaneous vascular permeability: 33.50%
[7]
  IC50: 44.8 nM
[5]; [13]
  Inhibition (%) of β-glucuronidase release: 129.72%
[5]; Leucocyte
  IC50: 0.555 nM
[8]
  Ki: 48100 nM
[9]
  IC50: 45.8 nM
[10]
  IC50: 3230 nM

## CCOc1cc(C=CC(=O)CCN2CC(C)OC(C)C2)ccc1O (centres unmarked) [Compound 37, 5-(2,6-Dimethylmorpholinyl)-1-(3-ethoxy-4-hydroxyphenyl)-1-penten-3-one hydrochloride]
[6]
  Inhibition (%) of mouse paw swelling: 21.60%
[3]
  Inhibition (%) of mouse ear edema: 33.20%
[4]
  Inhibition (%) of increase of cutaneous vascular permeability: 38.70%
[7]
  IC50: 83.2 nM
[5]; [13]
  Inhibition (%) of β-glucuronidase release: 79.24%
[5]; Leucocyte
  IC50: 1.23 nM
[8]
  Ki: 68300 nM
[9]
  IC50: 2 nM
[10]
  IC50: 3690 nM

## CN(C)C(=O)n1cc(C(=O)c2ccn3c2CS[C@@H]3c2cccnc2)c2ccc(-c3ccc(F)cc3)cc21 [Compound A-85783]
Rat ear edema
  rat ear edema: significantly inhibit

## Cc1nnc2n1-c1sc3c(c1C(c1ccccc1Cl)=NC2)CC(C(=O)N1CCOCC1)C3 (centres unmarked) [WEB2170]
[11]
  increase of TNF-α level in synovial fluid: inhibit
[12]
  increase of new vessels: inhibit
